Legend:
[1] = Chronic toxicity of suppositories: biochemical indexes of blood serum; type: in vivo, rats; conditions: male rats, suppositories, 1 month; for Cholesterol in blood serum: control 3.02 ± 0.08; for Urea in blood serum: control 8.44 ± 0.60; for Glucose in blood serum: control 9.76 ± 0.15; for ALT in blood serum: control 11.33 ± 1.96; for AST in blood serum: control 19.13 ± 1.02; for Bilirubin in blood serum: control 35.93 ± 2.19; for Creatinine in blood serum: control 40.23 ± 2.84; for Alkalinous phosphatase in blood serum: control 40.74 ± 1.57; for Total protein in blood serum: control 94.89 ± 6.67;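 as to all read-outs here: inbred rats dosed rectally with softened suppositories, controls given matching volumes of sterile medical liquid paraffin, serum sampled one month into a two-month dosing course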
Experimental: The experiments were conducted on inbred rats.
Two doses of preparations used in the experiments: 50 mg/kg and 500 mg/kg. Before the administration, the suppositories were softened by heating in a glass water bath at a temperature of 38-39° C., the soft mass was collected in tuberculin syringe in a volume of 1 ml, a needle with oliva was attached to the syringe, and the preparatory mass was introduced into the rectum of the animal for a depth of 1.5-2.0 cm. The animals of the control group were administered with sterile medical liquid paraffin in a volume corresponding to the volume of the investigated suppository. A complete course of administration of drugs to the animals was two months. A complex of laboratory diagnostic investigations was carried out one month after the beginning of the administration of the preparation to the animal—in a middle of the course (8 animals), two months after ending the course (8 animals) and three months after ending the recovery period of one month (8 animals). The mass of the body of the rats in the first month of administration of the preparation was determined weekly, and then once in two weeks. On the basis of the dynamics of an index of the mass of the animal body, the volume of preparation being administered was corrected taking into account the test dose.

plasma hemostasis [2] = assay: Prothrombin time after intravenous administration; type: in vivo, rabbit
Experimental: (§1) The static parameters of the blood and plasma coagulation (partial activated thromboplastin time, thrombin time, maximum coagulation activity (test for auto coagulation) were determined using the Behnk Electronic coagulometer (Germany). The operating principle of this instrument is based on the fact that the formed blood clot breaks the contacts of the pulse counter in the flask-pin circuit, said pin permanently oscillating in a vertical plane. The moment of formation of the clot is registered by stopping the stop watch hand.
(§2) The measurements were effected at a constant temperature of 37° C. maintained by a temperature control unit.
The method of its determination is based on estimation of the coagulation of citrate or oxalic blood plasma, when it is mixed with thromboplastin and a calcium chloride solution. Since under these conditions the time of formation of the clot depends on the content of II, VII, IX and X factors in the investigated plasma sample, now the test is called “thromboplastin time by Quick” or “activity thromboplastin complex”.
Citrate blood containing 1 part of citrate per 9 parts of native blood was centrifuged at 3000 rev/min for 10 minutes to obtain plasma deprived of thrombocytes.
Added into a test tube in a water bath were 0.1 ml of plasma and 0.1 ml of a thromboplastin solution.

[3] = test system: synthase of nitrogen oxide (NOC); assay: Morphine abstinence model: activity of synthase of nitrogen oxide (NOC), radiometric [3H]L-citrulline method; type: in vivo, rats Wistar; conditions: 20.0 mg/kg intramuscularly; for Activity of NOC: Mesencephalon: control 2.18 ± 0.09; for Activity of NOC: Hypothalamus: control 5.37 ± 0.20
plasma hemostasis [4] = assay: Autocoagulation test (coagulating activity A) after intravenous administration; type: in vivo, rabbit
Experimental: The investigations were performed on 72 rabbits of the “Chinchilla” breed with a mass of 2.5±0.3 kg, who were administered which solutions of compounds 2, 15, 21, 37 in doses of 15, 30 and 60 mg/kg intravenously. The experiments included the thrombin-test (series No. 7300) and the coagulability-test (series No. 5000) purchased from the scientific-and-production association (SPA) “Renam”, thromboplastin (series No. 240600) and calcium chloride purchased from the SPA “MedioLab”
as §1, §2
Compounds 2, 15, 21, 37 according to the invention at a concentration of 15, 30 and 60 mg/kg were intravenously administered to the above experimental animals and their blood samples were taken off 15, 30, 60 and 120 minutes after the administration.
Added to 0.2 ml of plasma obtained by centrifuging citrate blood at 1500 rev/min within 10 minutes was a glycosylate-calcium mixture (2.0 ml 0.222% CaCl2+0.1 ml of investigated citrate blood) 4, 6, 8, 10 minutes after the preparation of this mixture and the time of coagulation in the sample was determined.
The obtained results in seconds were translated in factors of coagulating activity A in percent, which specify the state of both the coagulating and anticoagulating parts of the blood coagulating system. The results of the experiments are given in Table 7. • The effect of the compounds according to the invention on the values of coagulating activity A by the data of autocoagulation test with intravenous administration of the compounds to the rabbits

[5] = test system: adenosine-sensitive receptors of erythrocytes; assay: Interaction with adenosine-sensitive receptors of erythrocytes (chemiluminescence of bound compound, adenosine competition); type: binding, mice of line BALB/c; conditions: incubation at 37° C. vs 4° C., 10^−7 to 10^−5 M
Experimental: The interaction of compounds 2, 15, 21, 37 according to the invention with adenosine-sensitive receptors of erythrocytes of female mice of line BALB/c of an age of 8-12 months was investigated.
The dependence of the chemiluminescence intensity of the compounds according to the invention in an alkaline solution of 0.1N NaOH was determined in the presence of hydrogen peroxide being an initiator of chemiluminescence. The chemiluminescence was studied using the <<LKB>> chemiluminometer.
The erythrocytes of peripheral blood of the mice at first were washed three times by a normal physiological solution with centrifuging and then diluted in the Henks solution without glucose by 10 volumes of distilled water immediately used in the experiment.
At the first stage of the experiments the washed erythrocytes were incubated at a temperature of 37° C. or at 4° C. with solutions of the compounds according to the invention at a concentration of 10^−7 to 10^−5 M for 5-30 minutes, then washed by a normal physiological solution with repeated centrifuging in the cold. The obtained suspension of erythrocytes with the bound compounds according to the invention was placed in 0.1N solution of NaOH with addition of hydrogen peroxide at a final concentration of 10^−7 M. The chemiluminescence intensity was measured. A suspension of erythrocytes without compounds according to the invention was used as a control medium.
At the second stage of the experiments the washed erythrocytes were incubated at a temperature of 37° C. with solutions of the compounds according to the invention at a concentration of 10^−11 to 10^−8 M during 5-30 minutes, then washed twice with a normal physiological solution by centrifuging in the cold, the obtained suspension was mixed with an adenosine solution at a concentration of 10^−6 to 10^−4 and incubated for 15 minutes, then washed twice with a normal physiological solution with centrifuging in the cold. The obtained suspension of erythrocytes with the compounds according to the invention was placed in 0.1N solution of NaOH with addition of hydrogen peroxide in the final concentration of 10^−7 M. The chemiluminescence intensity was measured.

**Q.** For `O=c1[nH][nH]c(=O)c2c(Br)ncnc12.[K]` [Compound 37, potassium salt of 4-bromine-pyrimido[4,5-D]-6H-pyridazine-5,8-dione], which “Cholesterol in blood serum” value ([1]; 50 mg/kg) is on record?
**A.** 2.48 ± 0.62 mmol/L

**Q.** And the “Urea in blood serum” value ([1]; 50 mg/kg)?
**A.** 9.36 ± 0.62 Mkmol/l

**Q.** And the Glucose in blood serum ([1]; 50 mg/kg)?
**A.** 9.9 ± 0.51 mM

**Q.** What about the “ALT in blood serum” value ([1]; 50 mg/kg) of the same compound?
**A.** 8.98 ± 2.43 unit/l

**Q.** What about the “AST in blood serum” value ([1]; 50 mg/kg) of the same compound?
**A.** 19.97 ± 2.78 unit/1

**Q.** What about the “Bilirubin in blood serum” value ([1]; 50 mg/kg) of the same compound?
**A.** 42.17 ± 3.28 mmol/L

**Q.** What about the “Creatinine in blood serum” value ([1]; 50 mg/kg) of the same compound?
**A.** 46.84 ± 2.92 mkmol/l

**Q.** What about the “Alkalinous phosphatase in blood serum” value ([1]; 50 mg/kg) of the same compound?
**A.** 41.86 ± 5.26 unit/l

**Q.** What about the “Total protein in blood serum” value ([1]; 50 mg/kg) of the same compound?
**A.** 89.44 ± 7.22 g/L

**Q.** What about the “Cholesterol in blood serum” value ([1]; 500 mg/kg) of the same compound?
**A.** 2.64 ± 0.46 mmol/L

**Q.** And the “Urea in blood serum” value ([1]; 500 mg/kg)?
**A.** 10.57 ± 0.56 Mkmol/l

**Q.** And the Glucose in blood serum ([1]; 500 mg/kg)?
**A.** 10.9 ± 0.84 mM

**Q.** And the “ALT in blood serum” value ([1]; 500 mg/kg)?
**A.** 9.56 ± 1.34 unit/l

**Q.** And the “AST in blood serum” value ([1]; 500 mg/kg)?
**A.** 18.21 ± 1.87 unit/1

**Q.** What about the “Bilirubin in blood serum” value ([1]; 500 mg/kg) of the same compound?
**A.** 41.45 ± 7.18 mmol/L

**Q.** And the “Creatinine in blood serum” value ([1]; 500 mg/kg)?
**A.** 47.13 ± 9.82 mkmol/l

**Q.** What about the “Alkalinous phosphatase in blood serum” value ([1]; 500 mg/kg) of the same compound?
**A.** 42.18 ± 2.34 unit/l

**Q.** And the “Total protein in blood serum” value ([1]; 500 mg/kg)?
**A.** 70.88 ± 7.24 g/L

**Q.** What about the “prothrombin time, T” value (plasma hemostasis [2]; 15.0 mg/kg intravenously, after 15 minutes, control 11.8 ± 0.1) of the same compound?
**A.** 11.6 ± 0.2 s

**Q.** What about the “prothrombin time, T” value (plasma hemostasis [2]; 15.0 mg/kg intravenously, after 30 minutes, control 11.8 ± 0.1) of the same compound?
**A.** 11.6 ± 0.1 s

**Q.** And the “prothrombin time, T” value (plasma hemostasis [2]; 15.0 mg/kg intravenously, after 60 minutes, control 11.8 ± 0.1)?
**A.** 11.5 ± 0.2 s

**Q.** What about the “prothrombin time, T” value (plasma hemostasis [2]; 15.0 mg/kg intravenously, after 120 minutes, control 11.8 ± 0.1) of the same compound?
**A.** 11.8 ± 0.1 s

**Q.** What about the “prothrombin time, T” value (plasma hemostasis [2]; 30.0 mg/kg intravenously, after 15 minutes, control 11.2 ± 0.1) of the same compound?
**A.** 11.3 ± 0.1 s

**Q.** What about the “prothrombin time, T” value (plasma hemostasis [2]; 30.0 mg/kg intravenously, after 30 minutes, control 11.2 ± 0.1) of the same compound?
**A.** 11.2 ± 0.2 s

**Q.** And the “prothrombin time, T” value (plasma hemostasis [2]; 30.0 mg/kg intravenously, after 60 minutes, control 11.2 ± 0.1)?
**A.** 11.4 ± 0.1 s

**Q.** And the “prothrombin time, T” value (plasma hemostasis [2]; 30.0 mg/kg intravenously, after 120 minutes, control 11.2 ± 0.1)?
**A.** 11.1 ± 0.1 s

**Q.** What about the “prothrombin time, T” value (plasma hemostasis [2]; 60.0 mg/kg intravenously, after 15 minutes, control 12.0 ± 0.1) of the same compound?
**A.** 12.1 ± 0.1 s

**Q.** And the “prothrombin time, T” value (plasma hemostasis [2]; 60.0 mg/kg intravenously, after 30 minutes, control 12.0 ± 0.1)?
**A.** 12.0 ± 0.1 s

**Q.** What about the “prothrombin time, T” value (plasma hemostasis [2]; 60.0 mg/kg intravenously, after 60 minutes, control 12.0 ± 0.1) of the same compound?
**A.** 12.1 ± 0.2 s

**Q.** What about the “prothrombin time, T” value (plasma hemostasis [2]; 60.0 mg/kg intravenously, after 120 minutes, control 12.0 ± 0.1) of the same compound?
**A.** 12.0 ± 0.1 s

**Q.** What about the “effect on the prothrombin time index” value (plasma hemostasis [2]; doses of 15.0, 30.0, 60.0 mg/kg) of the same compound?
**A.** have no effect on the prothrombin time index

**Q.** And the “Activity of NOC: Mesencephalon” value ([3]; Control + Compound)?
**A.** 2.62 ± 0.27 pmol/min/mg of protein

**Q.** And the “Activity of NOC: Hypothalamus” value ([3]; Control + Compound)?
**A.** 5.61 ± 0.22 pmol/min/mg of protein

**Q.** And the “Activity of NOC: Mesencephalon” value ([3]; Control + Morphine + compound)?
**A.** 1.85 ± 0.30 pmol/min/mg of protein

**Q.** And the “Activity of NOC: Hypothalamus” value ([3]; Control + Morphine + compound)?
**A.** 5.59 ± 0.22 pmol/min/mg of protein

**Q.** And the “coagulating activity A (autocoagulation test)” value (plasma hemostasis [4]; 15.0 mg/kg intravenously, after 15 minutes, control 85.6)?
**A.** 82.1%

**Q.** What about the “coagulating activity A (autocoagulation test)” value (plasma hemostasis [4]; 15.0 mg/kg intravenously, after 30 minutes, control 85.6) of the same compound?
**A.** 102.8%

**Q.** What about the “coagulating activity A (autocoagulation test)” value (plasma hemostasis [4]; 15.0 mg/kg intravenously, after 60 minutes, control 85.6) of the same compound?
**A.** 88.7%

**Q.** What about the “coagulating activity A (autocoagulation test)” value (plasma hemostasis [4]; 15.0 mg/kg intravenously, after 120 minutes, control 85.6) of the same compound?
**A.** 100.6%

**Q.** And the “coagulating activity A (autocoagulation test)” value (plasma hemostasis [4]; 30.0 mg/kg intravenously, after 15 minutes, control 70.0)?
**A.** 99.8%

**Q.** What about the “coagulating activity A (autocoagulation test)” value (plasma hemostasis [4]; 30.0 mg/kg intravenously, after 30 minutes, control 70.0) of the same compound?
**A.** 68.3%

**Q.** What about the “coagulating activity A (autocoagulation test)” value (plasma hemostasis [4]; 30.0 mg/kg intravenously, after 60 minutes, control 70.0) of the same compound?
**A.** 105.8%

**Q.** And the “coagulating activity A (autocoagulation test)” value (plasma hemostasis [4]; 30.0 mg/kg intravenously, after 120 minutes, control 70.0)?
**A.** 70.4%

**Q.** What about the “coagulating activity A (autocoagulation test)” value (plasma hemostasis [4]; 60.0 mg/kg intravenously, after 15 minutes, control 65.9) of the same compound?
**A.** 74.3%

**Q.** What about the “coagulating activity A (autocoagulation test)” value (plasma hemostasis [4]; 60.0 mg/kg intravenously, after 30 minutes, control 65.9) of the same compound?
**A.** 63.0%

**Q.** And the “coagulating activity A (autocoagulation test)” value (plasma hemostasis [4]; 60.0 mg/kg intravenously, after 60 minutes, control 65.9)?
**A.** 64.2%

**Q.** And the “coagulating activity A (autocoagulation test)” value (plasma hemostasis [4]; 60.0 mg/kg intravenously, after 120 minutes, control 65.9)?
**A.** 66.3%

**Q.** What about the “effect on the coagulation activity according to the autocoagulation test” value (plasma hemostasis [4]; doses 15.0, 30.0, 60.0 mg/kg) of the same compound?
**A.** have no effect on the coagulation activity

**Q.** What about the “dependence of the bond with erythrocytes on temperature” value [5] of the same compound?
**A.** does not depend on the temperature
